Values belong to the compound of their own block, whether it stands above or below them.
Key:
SF-295 = assay: tumor cell-growth inhibition assay, SF-295 cells; assay type: cell-based; details: Homo sapiens; cell line SF-295
Experimental: (§1) In order to find out whether the new derivatives retain their potency, the cytotoxicity of the CPT-, TMZ- and bosutinib-ketone analogues was evaluated in comparison to that of the parent drugs.

[1] = tested on: U-87 human primary glioblastoma cell; assay: tumor cell-growth inhibition assay, U-87 cells; assay type: cell-based; details: U-87 MG
Experimental: as §1
To determine the usefulness of the drug analogues produced harboring a ketone for controlled release and bioconjugation. CPT-ketone 2a was selected for further evaluation. As presented in Scheme 1, a ketone functional group can be masked either through an acid-labile hydrazone linkage or with a photo-labile ketal protecting group. CPT-ketone 2a was masked with a photo-labile protecting group (Gravel et al., 1983; Klan et al., 2013) to produce ketal derivative 6 (FIG. 5). This derivative can be considered as prodrug form of CPT-ketone 2a. […] The cytotoxicity of prodrug 6 was then evaluated in a standard cell-growth inhibition assay before and after irradiation with UV light (FIG. 5B). […] In this example, the prodrug was activated with UV light; however, there are analogues protecting groups that can be removed through a visible or near infrared light (Lu et al., 2003).

HiFR KB cells = assay: proliferation (MTT) assay on KB HiFR cells; assay type: cell-based; details: human
Experimental: Proliferation Assay KB HiFR were seeded in 96 well/plates, 2×10^3 cell/100 μL in folate depleted RPMI+10% FBS. After 24 h incubation at 37° C., 5% CO2, 100 μL of serial dilutions (200-0.00002 μM CPT equivalent concentrations) of CPT and CPT-derivatives were added to the wells (final concentration 100-0.00001 μM). In the short exposure (pulse and chase) experiment the treatments were removed after 10 min incubation at 37° C., 5% CO2, the cells were washed once with PBS and incubated with fresh folate depleted RPMI+10% FBS for 72 h. In the long exposure experiment, the cells were incubated for 72 h with the treatment. After 72 h incubation, 30 μL of […] of MTT (3-(4,5-dimethylthiazol-2-yl)-2,5-diphenyltetrazolium bromide) in PBS were added to each well, and incubated for 5 h. After incubation the medium was removed and the cells lysed in 200 μL DMSO and kept under gentle stirring protected from light for 20 min. Absorbance was measured at 560 nm and survival plotted as percentage of untreated control.

[2] = release of CPT-ketone 2a from prodrug 6 with and without UV irradiation; assay type: physicochemical
tumorous cell-lines = assay: tumor cell-growth inhibition assays of ketone derivatives vs native drugs, several tumorous cell-lines; assay type: cell-based; details: repeated with several tumorous cell-lines
Experimental: as §1
The assays were repeated with several tumorous cell-lines and the obtained results were similar (FIGS. 3-4).

U-251 = assay: tumor cell-growth inhibition assay, U-251 cells; assay type: cell-based; details: Homo sapiens; cell line U-251
Experimental: as §1

IC50 (SF-295): 17000 nM
SMILES: COc1cc(Nc2c(C#N)cnc3cc(OCCCN4CCN(C)CC4)c(OC)cc23)c(Cl)cc1Cl [Bosutinib, bosutinib, reference compound]

IC50 (SF-295): 17000 nM
SMILES: COc1cc(Nc2c(C#N)c(C(F)(F)CCCC(C)=O)nc3cc(OCCCN4CCN(C)CC4)c(OC)cc23)c(Cl)cc1Cl [Bosutinib-ketone]

SMILES: CC[C@@]1(O)C(=O)OCc2c1cc1n(c2=O)Cc2cc3ccccc3nc2-1 [CPT, camptothecin, reference compound]
IC50 ([1]; cell line U-87): 7 nM

SMILES: CCC1(O)C(=O)OCc2c1cc1n(c2=O)Cc2c-1nc1ccccc1c2C(F)(F)CCCC(C)=O (stereo not shown) [CPT-ketone]
IC50 ([1]; cell line U-87): 10 nM
IC50 ([1]; light or radiation study, comparator in prodrug 6 irradiation experiment): 5 nM
IC50 comparison, cytotoxicity on HiFR KB cells (HiFR KB cells): relatively similar IC50 values

SMILES: CCC1(O)C(=O)OCc2c1cc1n(c2=O)Cc2c-1nc1ccccc1c2C(F)(F)CCCC1(C)OCC(c2cc(OC)c(OC)cc2[N+](=O)[O-])O1 (stereo not shown) [Compound 6]
IC50 ([1]; light or radiation study, prodrug after irradiation with UV light): 10 nM
IC50 ([1]; light or radiation study, prodrug before irradiation with UV light): 350 nM
release of CPT-ketone 2a ([2]; irradiation with UV light over 2 hours under physiological conditions): resulted in release of CPT-ketone 2a
release of CPT-ketone 2a ([2]; without irradiation): No release was observed

SMILES: CC(=O)CCCC(F)(F)c1nc2nc(N)nc(N)c2nc1CN(C)c1ccc(C(=O)NC(CCC(=O)O)C(=O)O)cc1 (stereo not shown) [MTX-ketone]
cytotoxicity of ketone analogue compared with native drug (tumorous cell-lines): completely lost its cytotoxicity

IC50 (U-251): 36000 nM
SMILES: Cn1nnc2c(C(N)=O)ncn2c1=O [TMZ, temozolomide, reference compound]

IC50 (U-251): 35000 nM
SMILES: CC(=O)CCCC(F)(F)c1nc(C(N)=O)c2nnn(C)c(=O)n12 [TMZ-ketone]
